Measured values as given in ChEMBL document CHEMBL5107995, “Novel difluoromethylated 1-(phenylsulfonyl)-4-(piperazin-1-yl)-1H-indole derivatives as potent 5-HT6 receptor antagonist with AMDE-improving properties: Design, synthesis, and biological evaluation” (Bioorg Med Chem, 2022).
Calls of active or inactive are those of the source. The calls are words filed in the database; no cut-off is given here.

How the values were obtained:
[1] = Ratio of drug concentration in Sprague-Dawley rat brain to plasma at 1 mg/kg, iv measured after 45 mins by LC-MS/MS analysis; type: ADME, organism-based; details: brain and plasma, read-out: BPR
[2] = Ratio of drug concentration in Sprague-Dawley rat brain to plasma at 1 mg/kg, iv measured after 75 mins by LC-MS/MS analysis; type: ADME, organism-based; details: brain and plasma, read-out: BPR
[3] = Cmax in Sprague-Dawley rat at 2 mg/kg, iv measured for 24 hrs by LC-MS/MS analysis; type: ADME, organism-based; design: time 24 hrs, dose 2 mg/kg, route iv; details: in vivo
[4] = Clearance in Sprague-Dawley rat at 2 mg/kg, iv measured for 24 hrs by LC-MS/MS analysis; type: ADME, organism-based; details: in vivo
[5] = Cmax in Sprague-Dawley rat at 5 mg/kg, po measured for 24 hrs by LC-MS/MS analysis; type: ADME, organism-based; design: time 24 hrs, dose 5 mg/kg, route po; details: in vivo
[6] = Drug concentration in Sprague-Dawley rat brain at 1 mg/kg, iv measured after 15 mins by LC-MS/MS analysis; type: ADME, organism-based; details: read-out: Ct
[7] = Oral bioavailability in Sprague-Dawley rat at 5 mg/kg measured for 24 hrs by LC-MS/MS analysis; type: ADME, organism-based; details: in vivo; for bioavailability: Sprague-Dawley
[8] = Drug concentration in Sprague-Dawley rat plasma at 1 mg/kg, iv measured after 45 mins by LC-MS/MS analysis; type: ADME, organism-based
[9] = AUC (0 to t) in Sprague-Dawley rat at 2 mg/kg, iv measured for 24 hrs by LC-MS/MS analysis; type: ADME, organism-based; design: dose 2 mg/kg, time 24 hrs, route iv; details: in vivo; for AUC(0-t) at 24 h: Sprague-Dawley
[10] = Volume of distribution at steady state in Sprague-Dawley rat at 2 mg/kg, iv measured for 24 hrs by LC-MS/MS analysis; type: ADME, organism-based; details: in vivo, read-out: Vdss
[11] = Half life in Sprague-Dawley rat at 5 mg/kg, po measured for 24 hrs by LC-MS/MS analysis; type: ADME, organism-based; details: in vivo
[12] = Ratio of drug concentration in Sprague-Dawley rat brain to plasma at 1 mg/kg, iv measured after 15 mins by LC-MS/MS analysis; type: ADME, organism-based; details: brain and plasma, read-out: BPR
[13] = AUC (0 to t) in Sprague-Dawley rat at 5 mg/kg, po measured for 24 hrs by LC-MS/MS analysis; type: ADME, organism-based; design: time 24 hrs, dose 5 mg/kg, route po; details: in vivo; for AUC(0-t) at 24 h: Sprague-Dawley
[14] = Drug concentration in Sprague-Dawley rat plasma at 1 mg/kg, iv measured after 75 mins by LC-MS/MS analysis; type: ADME, organism-based
[15] = Drug concentration in Sprague-Dawley rat brain at 1 mg/kg, iv measured after 45 mins by LC-MS/MS analysis; type: ADME, organism-based; details: read-out: Ct
[16] = Half life in Sprague-Dawley rat at 2 mg/kg, iv measured for 24 hrs by LC-MS/MS analysis; type: ADME, organism-based; details: in vivo
[17] = Drug concentration in Sprague-Dawley rat plasma at 1 mg/kg, iv measured after 15 mins by LC-MS/MS analysis; type: ADME, organism-based
[18] = Drug concentration in Sprague-Dawley rat brain at 1 mg/kg, iv measured after 75 mins by LC-MS/MS analysis; type: ADME, organism-based; details: read-out: Ct
[19] = In vivo antagonist activity at 5-HT6R in Sprague-Dawley rat assessed as increase in intracerebral hippocampal acetylcholine level at 1.5 mg/kg, ip pretreated for 30 mins followed by donepezil addition and measured every 20 mins for 360 mins by LC-MS/MS analysis relative to control; type: functional; design: scale not given: the % may be the effect or the level left; details: time 390 min, 6.5 h
Rattus norvegicus = assay: Cognitive enhancing effect in Wistar rat model of scopolamine-induced cognitive impairment assessed as rescue of loss of preference for new object at 3 to 5 mg/kg, ip administered as single dose for 30 mins followed by scopolamine addition and measured after 30 mins by Novel object recognition assay; type: functional, organism-based; details: dose 3-5 mg/kg, time 1.0 hrs
[20] = In vivo antagonist activity at 5-HT6R in Sprague-Dawley rat assessed as increase in intracerebral hippocampal acetylcholine level at 5 mg/kg, ip pretreated for 30 mins followed by donepezil addition and measured every 20 mins for 360 mins by LC-MS/MS analysis relative to control; type: functional; design: scale not given: the % may be the effect or the level left; details: time 390 min, 6.5 h
Mus musculus = assay: Cognitive enhancing effect in C57BL/6J mouse model of scopolamine-induced memory deficit assessed as reduction in incubation period of mouse entering into dark compartment at 10 mg/kg, ip pretreated for 30 mins followed by scopolamine addition and measured after 30 mins by step-through passive avoidance test; type: functional, organism-based; details: time 1.0 hrs
[21] = molecular target: 5-hydroxytryptamine receptor 6 (Homo sapiens, UniProt P50406); assay: Displacement of [3H]-LSD from human 5HT6 receptor expressed in CHO cells assessed as inhibition constant incubated for 120 mins by liquid scintillation counting analysis; type: cell-based
5-hydroxytryptamine receptor 6, sequence (P50406 whole entry): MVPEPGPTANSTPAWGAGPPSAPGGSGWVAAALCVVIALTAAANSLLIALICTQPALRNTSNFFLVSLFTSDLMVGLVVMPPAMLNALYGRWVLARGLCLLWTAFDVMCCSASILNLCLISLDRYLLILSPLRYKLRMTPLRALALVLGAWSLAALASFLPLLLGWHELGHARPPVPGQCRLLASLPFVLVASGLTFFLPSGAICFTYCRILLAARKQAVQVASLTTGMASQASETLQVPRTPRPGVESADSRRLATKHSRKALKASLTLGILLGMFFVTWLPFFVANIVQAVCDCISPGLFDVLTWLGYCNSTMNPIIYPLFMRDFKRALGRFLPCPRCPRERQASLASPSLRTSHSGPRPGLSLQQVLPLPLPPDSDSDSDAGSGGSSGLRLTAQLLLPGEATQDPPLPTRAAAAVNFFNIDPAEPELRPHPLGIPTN

Kp at 0.75 h [1] | Kp at 1.25 h [2] | Cmax [3] [ng/mL] | clearance [4] [mL/min/kg] | Cmax [5] [ng/mL] | concentration at 0.25 h [6] [ng/g] | bioavailability [7] [%] | concentration at 0.75 h [8] [ng/mL] | AUC(0-t) at 24 h [9] [ng·h/mL] | Vd [10] [L/kg] | half-life [11] [h] | Kp at 0.25 h [12] | AUC(0-t) at 24 h [13] [ng·h/mL] | concentration at 1.25 h [14] [ng/mL] | concentration at 0.75 h [15] [ng/g] | half-life [16] [h] | concentration at 0.25 h [17] [ng/mL] | concentration at 1.25 h [18] [ng/g] | Structure (SMILES) | further results
2.37 | 3.21 | 200 | 82.8 | 44.1 | 406 | 37 | 127 | 306 | 26.6 | 4.39 | 0.94 | 348 | 69.6 | 302 | 4.46 | 434 | 224 | O=S(=O)(c1cccc(Cl)c1)n1cc(C(F)F)c2c(N3CCNCC3)cccc21 | 
6.17 | 6.16 | 140 | 93.4 | 51.8 | 279 | 34.4 | 30.3 | 323 | 18.8 | 4.33 | 4.81 | 267 | 20.8 | 187 | 2.28 | 58.1 | 128 | O=S(=O)(c1cccc(F)c1)n1cc(C(F)F)c2c(N3CCNCC3)cccc21 | Activity [19]: 235%; Activity (Rattus norvegicus): Active; Activity [20]: 287%; Activity (Mus musculus): Active
 |  | 112 | 108 | 33.6 |  | 18.5 |  | 272 | 24 | 1.98 |  | 132 |  |  | 2.54 |  |  | O=S(=O)(c1ccccc1F)n1cc(C(F)F)c2c(N3CCNCC3)cccc21 | 

The remaining lines, values behind:

Structure (SMILES) | Kp at 0.75 h [1] | Kp at 1.25 h [2] | Cmax [3] [ng/mL] | clearance [4] [mL/min/kg] | Cmax [5] [ng/mL] | concentration at 0.25 h [6] [ng/g] | bioavailability [7] [%] | concentration at 0.75 h [8] [ng/mL] | AUC(0-t) at 24 h [9] [ng·h/mL] | Vd [10] [L/kg] | half-life [11] [h] | Kp at 0.25 h [12] | AUC(0-t) at 24 h [13] [ng·h/mL] | concentration at 1.25 h [14] [ng/mL] | concentration at 0.75 h [15] [ng/g] | half-life [16] [h] | concentration at 0.25 h [17] [ng/mL] | concentration at 1.25 h [18] [ng/g] | further results
O=S(=O)(c1ccccc1Cl)n1cc(C(F)F)c2c(N3CCNCC3)cccc21 |  |  | 120 | 123 | 33.6 |  | 29.5 |  | 242 | 25.8 | 3.01 |  | 162 |  |  | 2.55 |  |  | 
Cc1cn(S(=O)(=O)c2cccc(F)c2)c2cccc(N3CCNCC3)c12 |  |  | 159 | 63 | 3.61 |  |  |  |  | 6.7 |  |  |  |  |  | 1.4 |  |  | F ([7]; po, 5 mg/kg, 24 h): 5.95%; AUCt ([9]; 24 h): 254 ng·h/mL; Ki [21]: 0.51 nM; AUCt ([13]; 24 h): 9.37 ng·h/mL
